The values that follow come from article PMC9851200, “Multiparameter phenotypic screening for endogenous TFEB and TFE3 translocation identifies novel chemical series modulating lysosome function” (Autophagy, 2022).

What all share (settings): PKIS2 primary screening
One series has as its system endogenous TFEB. The series can be described thus: TFEB nuclear translocation, immunocytochemistry high-content imaging. Format: cell-based.
Another series concerns endogenous TFE3. The series can be described thus: TFE3 nuclear translocation, immunocytochemistry high-content imaging. Format: cell-based.
The subject of series [1] is SH-SY5Y cells.
Excerpt: The PKIS2 Library was supplied by The Structural Genomics Consortium at the University of North Carolina at Chapel Hill.
Series [2] deals with SH-SY5Y cells. The series can be described thus: AK (adenylate kinase) release ToxiLight cytotoxicity assay. Also: reference of the scale not given here.
The test system of series [3] is SH-SY5Y cells. The series can be described thus: Nuclear count from microscopy images (cellular growth and toxicity). Also: reference of the scale not given here.

Where two headings read alike, the source gives them in different places.
For DQ Intensity in this document: reference of the scale not given here.
For DQ Spot in this document: reference of the scale not given here.

`CCCc1ccc(S(=O)(=O)NC2CCN(c3ccnc(Nc4ccc(F)cc4)n3)C2)cc1` (stereo not drawn) [GSK1379715] had a TFEB % in the series on endogenous TFEB of 6.97%. The molecule also gave a TFE3 % in the series with endogenous TFE3 of 11.31%. Besides, the “DQ Intensity” value with SH-SY5Y cells [1] (DQ Red BSA intensity) is recorded as 80.29. In addition, the “DQ Spot” value in the series on SH-SY5Y cells [1] (DQ Red BSA spot count) turned out to be 105.29. The AK in the series on SH-SY5Y cells [2] was determined as 100.57. In addition, the “Nuclear Count” value with SH-SY5Y cells [3] is 97.10.

As to `CC(C)c1ccc(O)cc1Nc1ccnc2ccc(C(F)(F)F)cc12` [UNC10225322A], the TFEB % in the series on endogenous TFEB was 7.26%. The same molecule came in with a TFE3 % with endogenous TFE3 of 14.84%. For the same molecule, the “DQ Intensity” value in the series with SH-SY5Y cells [1] (DQ Red BSA intensity) is reported as 103.64. Further, in the series on SH-SY5Y cells [1] (DQ Red BSA spot count), the “DQ Spot” value worked out at 104.80. In addition, in the series with SH-SY5Y cells [2], the AK is listed as 93.97. Also, in the series on SH-SY5Y cells [3], the “Nuclear Count” value came out at 91.30.

In the series on endogenous TFEB, `Cc1ccc(F)c(C(=O)Nc2cccc(-c3nn4ccccc4c3-c3ccnc(Nc4cccc(F)c4)n3)c2)c1F` [UNC10225076A] yielded a TFEB % of 2.83%. Moreover, the TFE3 % in the series with endogenous TFE3 amounted to 6.05%. In addition, in the series on SH-SY5Y cells [1], the “DQ Intensity” value turned out to be 103.33 and the “DQ Spot” value turned out to be 125.97. In addition, the AK in the series on SH-SY5Y cells [2] is on record as 111.27. Moreover, the “Nuclear Count” value in the series with SH-SY5Y cells [3] was found to be 118.77.

In the case of `Cc1ccc(NC(=O)Nc2cc(C(C)(C)C)nn2-c2ccccc2)cc1` [UNC10225353A], the TFEB % in the series on endogenous TFEB was found to be 9.78%. This molecule gave a TFE3 % with endogenous TFE3 of 7.76%. Further, in the series on SH-SY5Y cells [1], the “DQ Intensity” value turned out to be 116.80 and the “DQ Spot” value is reported as 100.99. In addition, in the series with SH-SY5Y cells [2], the AK was found to be 76.54. For the same molecule, the “Nuclear Count” value in the series on SH-SY5Y cells [3] is 116.98.

`Fc1ccc(-c2nn3cccc(F)c3c2-c2ccncc2)cc1` [UNC10225116A] returned a TFEB % with endogenous TFEB of 9.32%. Further, the TFE3 % in the series with endogenous TFE3 was found to be 11.01%. For the same molecule, in the series with SH-SY5Y cells [1] (DQ Red BSA intensity), the “DQ Intensity” value turned out to be 138.45. Besides, the “DQ Spot” value in the series on SH-SY5Y cells [1] (DQ Red BSA spot count) was found to be 107.80. Further, the AK in the series on SH-SY5Y cells [2] turned out to be 96.78. The “Nuclear Count” value with SH-SY5Y cells [3] worked out at 80.47.

Consider `Nc1nc(Nc2ccccc2)cc(-c2ccc3c(N)n[nH]c3c2)n1` [GSK2225749], for which the TFEB % with endogenous TFEB is recorded as 8.82%. Moreover, the TFE3 % in the series with endogenous TFE3 worked out at 13.67%. In addition, the “DQ Intensity” value in the series with SH-SY5Y cells [1] (DQ Red BSA intensity) turned out to be 84.54. Further, the “DQ Spot” value in the series with SH-SY5Y cells [1] (DQ Red BSA spot count) was determined as 97.02. In addition, the AK with SH-SY5Y cells [2] is on record as 135.05. Moreover, the “Nuclear Count” value with SH-SY5Y cells [3] is 92.29.

`COc1ccc(Nc2ncc(C#N)c(Nc3ccccc3C(N)=O)n2)cc1N1CCN(C)CC1` [GSK1558669] registered a TFEB % in the series on endogenous TFEB of 5.16%. The TFE3 % in the series with endogenous TFE3 was 11.88%. In addition, the “DQ Intensity” value in the series on SH-SY5Y cells [1] (DQ Red BSA intensity) came out at 142.11. Further, in the series on SH-SY5Y cells [1] (DQ Red BSA spot count), the “DQ Spot” value came to 120.07. For the same molecule, the AK in the series on SH-SY5Y cells [2] is 96.14. Further, the “Nuclear Count” value in the series with SH-SY5Y cells [3] is reported as 62.25.

In the case of `CN(c1ccc2c(c1)nc(NCc1ccccc1)n2C)c1ccnc(Nc2ccc(CS(C)(=O)=O)cc2)n1` [GW811603], the TFEB % in the series with endogenous TFEB turned out to be 7.98%. The molecule also displayed a TFE3 % with endogenous TFE3 of 9.93%. Further, the “DQ Intensity” value in the series with SH-SY5Y cells [1] (DQ Red BSA intensity) was 108.65. Further, the “DQ Spot” value with SH-SY5Y cells [1] (DQ Red BSA spot count) worked out at 109.65. The molecule further yielded an AK in the series with SH-SY5Y cells [2] of 192.03. Moreover, in the series with SH-SY5Y cells [3], the “Nuclear Count” value is listed as 118.98.

Take `Fc1ccc(-c2nc3n(c2-c2ccncc2)CCS3)cc1` [UNC10225163A]: in the series on endogenous TFEB, the TFEB % is 3.29%. This molecule came in with a TFE3 % in the series with endogenous TFE3 of 5.95%. Besides, the “DQ Intensity” value in the series on SH-SY5Y cells [1] (DQ Red BSA intensity) is on record as 100.39. The “DQ Spot” value with SH-SY5Y cells [1] (DQ Red BSA spot count) was determined as 119.65. The molecule also came in with an AK in the series with SH-SY5Y cells [2] of 64.81. Also, the “Nuclear Count” value in the series with SH-SY5Y cells [3] came to 90.62.

In the case of `COc1cc(Nc2nccc(N3CCC(NC(=O)Nc4ccc5c(c4)OCO5)C3)n2)cc(OC)c1OC` (stereo not drawn) [GSK1379766], the TFEB % with endogenous TFEB amounted to 4.47%. The molecule also returned a TFE3 % in the series with endogenous TFE3 of 9.31%. Further, in the series with SH-SY5Y cells [1] (DQ Red BSA intensity), the “DQ Intensity” value was found to be 63.32. For the same molecule, the “DQ Spot” value with SH-SY5Y cells [1] (DQ Red BSA spot count) worked out at 78.55. In addition, the AK with SH-SY5Y cells [2] is listed as 118.87. In addition, the “Nuclear Count” value in the series with SH-SY5Y cells [3] turned out to be 95.41.

`CC(C)c1nc(-c2cccc(NS(=O)(=O)c3c(F)cccc3F)c2F)c(-c2ccnc(Nc3ccc(N4CCOCC4)nc3)n2)s1` [UNC10224991A]: in the series on endogenous TFEB, the TFEB % worked out at 5.34%. The molecule also registered a TFE3 % in the series on endogenous TFE3 of 13.92%. For the same molecule, in the series with SH-SY5Y cells [1], the “DQ Intensity” value was 137.04 and the “DQ Spot” value was found to be 135.69. The same molecule gave an AK in the series on SH-SY5Y cells [2] of 96.03. Further, in the series with SH-SY5Y cells [3], the “Nuclear Count” value is 54.49.
